For assay [1], the system named is HCT116. Kind of assay: AC50 cell viability (CellTiter-Glo); higher = less potent. The conditions noted are these: 48 h. For orientation: Cellular ATP, detected with luciferase, serves as a proxy for viable cell number.
For assay [2], the system named is HCT116. Put plainly: efficacy (fitted maximal change in viability relative to DMSO control); higher = less cytotoxic (negative = loss of viability). The conditions noted are these: 48 h.

Structures can show the parent of a compound that is named as a salt.
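Throughout, for AC50 cell viability (CellTiter-Glo): HCT116 colorectal carcinoma cells screened at five concentrations per compound, luminescent viability scaled between DMSO wells and empty wells on each plate, curves fitted per compound.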
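Throughout, for efficacy (fitted maximal change in viability relative to DMSO control): Luminescence-based viability readout, five doses per compound, normalized against on-plate DMSO and empty-well controls, followed by dose-response curve fitting for every drug.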

In the assay on HCT116 [1], `Cc1cncc2cccc([S+](=O)([O-])N3CCCN(C(=O)CN)C[C@@H]3C)c12` [Glycyl-H-1152] returned an AC50 cell viability of 5.9 µM. The efficacy in the assay on HCT116 [2] was -35.8%.
In the assay with HCT116 [1], `Cn1c2ccccc2c2c3c(c4c5ccccc5n(CCC#N)c4c21)CNC3=O` [Go-6976] came in with an AC50 cell viability of 18.6 µM. In addition, the efficacy with HCT116 [2] is -63%.
For `COC1=CC=C2[N](CCCN(C)C)C=C(C2=C1)C/3=C(/C(=O)NC3=O)C4=C[NH]C5=C4C=CC=C5` [Go-6983], in that order: 10.5 µM and -111%.
With `CN1CCN(C2CCN(C(=O)Nc3cc(Oc4ccc(NC(=O)C5(C(=O)Nc6ccc(F)cc6)CC5)c(F)c4)ccn3)CC2)CC1` [Golvatinib], in the assay on HCT116 [1], the AC50 cell viability amounted to 14.8 µM. Further, the efficacy in the assay on HCT116 [2] was -93.6%.
For `O=[S+]([O-])(NCCNC/C=C/c1ccc(Br)cc1)c1cccc2cnccc12` [H-89], in that order: 18.6 µM and -88.2%.
Compound `O=C1S/C(=C\c2ccc(OCc3cccc(B(O)O)c3)cc2)C(=O)N1Cc1ccc(F)cc1` [HA-130] returned an AC50 cell viability with HCT116 [1] of 18.6 µM. The efficacy in the assay on HCT116 [2] is -41.3%.
For `ONC(=O)C1=CC=C(C=C1)C/2=N/C3=CC=CC=C3OC4=C2C=CC=C4` [HDACi-01], in that order: 2.95 µM and -85.9%.
On to `O=C(NO)c1cnc(N2C[C@H]3C[C@@H]2CN3c2cc(C(F)(F)F)ccn2)nc1` [HDACi-02], for which, in the assay with HCT116 [1], the AC50 cell viability stood at 1.48 µM. For the same compound, the efficacy in the assay on HCT116 [2] is -86.6%.
On the same counts, the results for `CCN1CCN(Cc2ccc(NC(=O)c3ccc(C)c(/C=C/c4cnc5[nH]ccc5c4OC)c3)cc2C(F)(F)F)CC1` [HG-6-64-1] are 2.95 µM and -96.2%.
Turning to `COCCOC(=O)C/1=C(C)/NC/2=C(C1C3=CC=CC(=C3)O)/C(=O)CC(C2)C4=C(OC)C=CC=C4` (stereo not drawn) [HPI-1], in the assay on HCT116 [1], the AC50 cell viability was determined as 14.8 µM. The efficacy in the assay on HCT116 [2] is -73.6%.
Take `COc1cccc(-c2cc(F)ccc2C2Cc3nc(N)nc(C)c3C(=O)N2)n1` (stereo not drawn) [HSP-990]: the AC50 cell viability in the assay with HCT116 [1] turned out to be 0.0525 µM. Besides, in the assay on HCT116 [2], the efficacy is -64.3%.
Consider `CCCCN(CCCC)CCC(O)c1cc2c(Cl)cc(Cl)cc2c2cc(C(F)(F)F)ccc12.Cl` (stereo not drawn) [Halofantrine], for which the AC50 cell viability in the assay with HCT116 [1] amounted to 20.9 µM. Further, the efficacy with HCT116 [2] is -66.6%.
As to `CC[S+](=O)([O-])Nc1ccc2c(c1)/C(=C(/Nc1ccc(CN3CCCCC3)cc1)c1ccccc1)C(=O)N2` [Hesperadin], the AC50 cell viability in the assay on HCT116 [1] was determined as 0.235 µM. In addition, the efficacy in the assay with HCT116 [2] was -90.4%.
As for `CNC1CCC(N(Cc2cccc(-c3ccncc3)c2)C(=O)c2sc3c(F)ccc(F)c3c2Cl)CC1` (stereo not drawn) [Hh-Ag1.5], the AC50 cell viability in the assay with HCT116 [1] was found to be 13.2 µM. In addition, the efficacy in the assay on HCT116 [2] is -115%.
Compound `COc1cc(O)c2c(c1)C1OC1C[C@H](O)[C@H](O)C(=O)/C=C\C[C@H](C)OC2=O` (stereo partly drawn) [Hypothemycin] gave an AC50 cell viability in the assay with HCT116 [1] of 3.72 µM. Further, the efficacy in the assay with HCT116 [2] is -72%.
On the same counts, the results for `COc1cc2c(cc1-c1c(C)noc1C)ncc1[nH]c(=O)n([C@H](C)c3ccccn3)c12` [I-BET151] are 1.32 µM and -77.4%.
On the same counts, the results for `CCNC(=O)C[C@@H]1\N=C(C2=CC=C(Cl)C=C2)/C3=C(C=CC(=C3)OC)[N]4C(=NN=C14)C` [I-BET762] are 2.63 µM and -67%.
For `O=C1[C@H](Cc2ccc(O)cc2)N2C(=O)CCN(C(=O)NCc3ccccc3)[C@H]2CN1Cc1cccc2ccccc12` [ICG-001], in that order: 2.09 µM and -67.2%.
In the assay with HCT116 [1], `N#Cc1c(C2CCNCC2)cc(-c2c(O)cccc2OCC2CC2)nc1N` [IKK-2 Inhibitor VIII] gave an AC50 cell viability of 10.5 µM. Also, in the assay with HCT116 [2], the efficacy is -89.2%.
On the same counts, the results for `O=C(c1ccc(Nc2nccc(-c3cc4ccccc4s3)n2)cc1)N1CCC(N2CCCC2)CC1` [IKK-16] are 6.61 µM and -106%.
On the same counts, the results for `O=C(Nc1cc(C(F)(F)F)cc(C(F)(F)F)c1)c1cc(Cl)ccc1O` [IMD-0354] are 0.833 µM and -88.7%.
On the same counts, the results for `CC(C)n1nc(-c2ccc3oc(N)nc3c2)c2c(N)ncnc21` [INK-128] are 0.372 µM and -100%.
Compound `Nc1ccc(C(=O)c2cc3c(ccc4ccccc43)[nH]2)cc1` [IPFK2] showed an AC50 cell viability in the assay with HCT116 [1] of 4.81 µM. In addition, in the assay with HCT116 [2], the efficacy is -102%.
The compound `CC(NC1=NC=NC2=C1[NH]C=N2)\C3=C\C4=C(C(=CC=C4)Cl)C(=O)N3C5=CC=CC=C5` (stereo not drawn) [IPI-145] returned an AC50 cell viability in the assay with HCT116 [1] of 14.8 µM. Further, in the assay on HCT116 [2], the efficacy is -58.5%.
`C[C@H](NC(=O)C1=C2N=CC=C[N]2N=C1N)\C3=C\C4=CC=CC(=C4C(=O)N3C5=CC=CC=C5)C#CC6=C[N](C)N=C6` [IPI-549] came in with an AC50 cell viability with HCT116 [1] of 8.11 µM. Moreover, the efficacy in the assay with HCT116 [2] was -43.1%.
`O=C(Nc1nc2ccccc2n1CCN1CCOCC1)c1cccc([N+](=O)[O-])c1` [IRAK-1-4 Inhibitor I] registered an AC50 cell viability with HCT116 [1] of 14.8 µM. Besides, in the assay with HCT116 [2], the efficacy was -64.8%.
For `CC(C)(C)OC(=O)Nc1ccc(-c2cc(C(=O)NCCCCCCC(=O)NO)no2)cc1` [ISOX], in that order: 1.86 µM and -91.5%.
For `CCOC(=O)\C1=C(/C)N\C2=C(C1C3=CC=C(C=C3)C4=CC=CC=C4)\C(=O)CC(C)(C)C2` (stereo not drawn) [ITD-1], the AC50 cell viability in the assay on HCT116 [1] was found to be 18.6 µM. The efficacy in the assay with HCT116 [2] was -67.8%.
For `COc1cc(C)c(Sc2cnc(NC(=O)c3ccc(CNC(C)C(C)C)cc3)s2)cc1C(=O)N1CCN(C(C)=O)CC1` (stereo not drawn) [ITK Inhibitor], in that order: 14.8 µM and -132%.
On the same counts, the results for `COc1ccc([S+](=O)([O-])N(C(C)=O)c2ccccc2/C=C/c2cc[n+]([O-])cc2)cc1` [IVX-214] are 4.17 µM and -59.1%.
For `CC(C)(NC(=O)O[C@@H]1CN2CCC1CC2)c1csc(-c2ccc(F)cc2)n1` [Ibiglustat], in that order: 18.6 µM and -43.3%.
For `CC(=O)[C@]1(O)Cc2c(O)c3c(c(O)c2[C@@H](O[C@H]2C[C@H](N)[C@H](O)[C@H](C)O2)C1)C(=O)c1ccccc1C3=O` [Idarubicin hydrochloride], the AC50 cell viability in the assay on HCT116 [1] turned out to be 0.661 µM. Moreover, the efficacy in the assay with HCT116 [2] is -83%.
For `COc1cc(C(=O)O)ccc1NC(=O)[C@@H]1N[C@@H](CC(C)(C)C)[C@](C#N)(c2ccc(Cl)cc2F)[C@H]1c1cccc(Cl)c1F` [Idasanutlin], in that order: 1.66 µM and -67.9%.
Turning to `COC\1=C(/OC)C(=O)\C(=C(C)/C1=O)CCCCCCCCCCO` [Idebenone], in the assay on HCT116 [1], the AC50 cell viability came to 18.6 µM. In the assay on HCT116 [2], the efficacy was -54.9%.
On the same counts, the results for `OC[C@H]1O[C@H](C[C@@H]1O)N2\C=C(\I)C(=O)NC2=O` [Idoxuridine] are 16.6 µM and -38.3%.
On the same counts, the results for `OC1=CC=C(C=C1)C/2=C/C3=C(OC2)C=C(O)C=C3` [Idronoxil] are 3.72 µM and -73.9%.
For `Cc1ccc(NC(=O)c2ccc(CN3CCN(C)CC3)cc2)cc1Nc1nccc(-c2cccnc2)n1` [Imatinib], in that order: 16.6 µM and -85%.
In the assay with HCT116 [1], `NC(=O)C/1=C(O)/[C@]2(O)[C@@H](C[C@@H]\3CC4=C(C(=CC=C4)O)\C(=C3C2=O)O)CC1=O` [Incyclinide] registered an AC50 cell viability of 16.6 µM. For the same compound, the efficacy in the assay with HCT116 [2] is -69.4%.
The compound `O=C(Nc1ccncc1)C(=O)c1cn(Cc2ccc(Cl)cc2)c2ccccc12` [Indibulin] registered an AC50 cell viability in the assay on HCT116 [1] of 0.295 µM. In addition, in the assay with HCT116 [2], the efficacy is -70.9%.
For `COC1=C(OC)C=C2C(=C1)C(=O)N(CCC[N]3C=CN=C3)\C4=C2\C(=O)C5=CC6=C(OCO6)C=C45` [Indimitecan hydrochloride (LMP-776)], in that order: 5.9 µM and -63.4%.
For `N[S+](=O)([O-])c1ccc([S+](=O)([O-])Nc2cccc3c(Cl)c[nH]c23)cc1` [Indisulam (E7070)], in that order: 1.86 µM and -57.8%.
On the same counts, the results for `COC1=C(OC)C=C2C(=C1)C(=O)N(CCCN3CCOCC3)\C4=C2\C(=O)C5=C4C=C6OCOC6=C5` [Indotecan hydrochloride (LMP-400)] are 2.09 µM and -88.1%.
In the case of `CC(C)NC[C@@H](C(=O)N1CCN(c2ncnc3c2[C@H](C)C[C@H]3O)CC1)c1ccc(Cl)cc1` [Ipatasertib], in the assay with HCT116 [1], the AC50 cell viability was found to be 13.2 µM. Further, in the assay on HCT116 [2], the efficacy was -96.8%.
For `CCC1=C2C=C(OC(=O)N3CCC(CC3)N4CCCCC4)C=CC2=NC\5=C1CN6C(=O)\C7=C(/C=C56)[C@@](O)(CC)C(=O)OC7` [Irinotecan], in that order: 1.18 µM and -80%.
On the same counts, the results for `Clc1ccc(C(Cn2ccnc2)OCc2c(Cl)cccc2Cl)c(Cl)c1` (stereo not drawn) [Isoconazole nitrate] are 23.5 µM and -77.2%.
Turning to `CC(C)[C@@H](N(CCCN)C(=O)C1=CC=C(C)C=C1)C/2=N/C3=CC(=CC=C3C(=O)N2CC4=CC=CC=C4)Cl` [Ispinesib], in the assay with HCT116 [1], the AC50 cell viability is 0.0295 µM. In addition, the efficacy with HCT116 [2] was -94.4%.
On the same counts, the results for `CC(C)(C)C1=CC(=C(NC(=O)C/2=C/NC3=C(C=CC=C3)C2=O)C=C1O)C(C)(C)C` [Ivacaftor] are 18.6 µM and -108%.
`C/C(=C\c1csc(C)n1)[C@@H]1C[C@@H]2O[C@]2(C)CCC[C@H](C)[C@H](O)[C@@H](C)C(=O)C(C)(C)[C@@H](O)CC(=O)N1` [Ixabepilone] registered an AC50 cell viability with HCT116 [1] of 0.0833 µM. Besides, the efficacy with HCT116 [2] was -58.5%.
For `CC(C)C[C@H](NC(=O)CNC(=O)c1cc(Cl)ccc1Cl)B1OC(=O)CC(CC(=O)O)(C(=O)O)O1` (stereo partly drawn) [Ixazomib citrate], in that order: 0.148 µM and -93.4%.

These data come from the supplement of paper PMC10290057.
